Data on four molecules can be found in patent US20220056043A1, “NITROGEN-CONTAINING FUSED CYCLIC COMPOUND, PREPARATION METHOD THEREFOR AND USE THEREOF” (SICHUAN KELUN-BIOTECH BIOPHARMACEUTICAL CO., LTD., priority 2019, published 2022).

One data set has as its target T1, hTLR7 (Homo sapiens, UniProt Q9NYK1).
T1 construct: host or cells: HEK-hTLR7-NF-κB-Luciferase cells
T1 sequence (Q9NYK1 27-1049): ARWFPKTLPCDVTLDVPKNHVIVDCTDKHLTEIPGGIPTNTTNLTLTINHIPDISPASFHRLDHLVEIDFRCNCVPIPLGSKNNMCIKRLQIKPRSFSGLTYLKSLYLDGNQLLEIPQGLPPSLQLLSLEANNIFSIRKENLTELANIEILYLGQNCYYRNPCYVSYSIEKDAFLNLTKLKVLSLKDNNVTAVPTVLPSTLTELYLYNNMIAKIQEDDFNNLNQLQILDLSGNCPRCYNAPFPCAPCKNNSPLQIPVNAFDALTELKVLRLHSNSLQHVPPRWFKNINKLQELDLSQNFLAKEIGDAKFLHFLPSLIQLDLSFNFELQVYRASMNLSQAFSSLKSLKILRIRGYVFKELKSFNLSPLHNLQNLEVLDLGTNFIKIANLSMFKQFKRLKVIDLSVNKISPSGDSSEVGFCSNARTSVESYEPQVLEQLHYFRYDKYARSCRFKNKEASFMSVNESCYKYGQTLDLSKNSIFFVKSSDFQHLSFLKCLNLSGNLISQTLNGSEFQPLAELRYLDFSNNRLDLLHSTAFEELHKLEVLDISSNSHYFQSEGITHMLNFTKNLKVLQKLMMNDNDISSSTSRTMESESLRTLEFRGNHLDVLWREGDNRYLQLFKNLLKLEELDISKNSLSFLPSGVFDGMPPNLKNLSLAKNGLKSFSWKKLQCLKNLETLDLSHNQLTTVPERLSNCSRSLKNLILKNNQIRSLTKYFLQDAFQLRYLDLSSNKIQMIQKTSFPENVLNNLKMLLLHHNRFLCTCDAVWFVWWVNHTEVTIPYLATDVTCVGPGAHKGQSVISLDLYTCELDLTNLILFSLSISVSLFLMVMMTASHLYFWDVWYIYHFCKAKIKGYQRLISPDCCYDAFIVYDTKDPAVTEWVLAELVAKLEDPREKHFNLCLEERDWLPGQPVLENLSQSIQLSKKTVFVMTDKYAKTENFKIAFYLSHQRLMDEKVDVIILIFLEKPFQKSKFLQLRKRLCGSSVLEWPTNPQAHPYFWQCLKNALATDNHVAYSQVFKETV
The data set is described as follows: Agonistic effect on hTLR7, HEK-hTLR7-NF-κB-Luciferase reporter cells. As to conditions: 16 hours. It counts as cell-based. The gist of the method:
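HEK cells carrying human TLR7 and NF-κB-luciferase reporter, […] in DMEM with 10% FBS, exposed to compound for 16 h at 37 °C, 5% CO2; serves as specificity counterscreen to NLRP3 activity. Luminescence (RLU) after 5 min with luciferase reagent; EC50 by four-parameter variable-slope fit.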

The target in another data set is T2, CYP2D6 (Homo sapiens, UniProt P10635).
T2 construct: purchased
Description: CYP enzyme inhibition test, Vivid CYP2D6 Cyan Screening Kit. As to conditions: for inhibitory effect on CYP2D6: conclusion in words. It counts as in vitro ADME. How it is done: Experimental Example 6: CYP Enzyme Inhibition Test CYP450 is the most important enzyme system in drug metabolism. The enzymes involved in metabolism interact with drugs, and the most important ones are CYP1A2, CYP2D6 and CYP3A4. P450-Glo™ CYP1A2 Screening System, Vivid® CYP2D6 Cyan Screening Kit and Vivid® CYP3A4 Red Screening Kit were used in this test, and the inhibitory effects of the compounds on CYP1A2, CYP2D6 and CYP3A4 were determined according to the instructions of the kit.

For a further data set, the system named is THP1-defNLRP3 cells. The data set is described as follows: Agonistic effect on the expression of IL-1β in NLRP3 deficient THP1 cells (THP1-defNLRP3) after PMA-induced differentiation (HTRF). It counts as cell-based, human. As to conditions: Homo sapiens, THP-1; IL-1β level, PMA-differentiated NLRP3 deficient THP1 cells, 6 hours; highest test concentration 30 μM; read-out: hNLRP3 EC50 (μM) (THP-1defNLRP3). The method, boiled down:
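PMA-differentiated (1 μM, 24 h) NLRP3-deficient THP1 macrophages, 1×10^5 cells/well in RPMI 1640 with 2% heat-inactivated FBS, treated with compound for 6 h at 37 °C. Supernatant IL-1β measured by HTRF. EC50 from four-parameter variable-slope fit.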
(In general: TR-FRET usually uses a lanthanide donor and a delayed reading to cut background.)

T2 sequence (P10635 whole entry): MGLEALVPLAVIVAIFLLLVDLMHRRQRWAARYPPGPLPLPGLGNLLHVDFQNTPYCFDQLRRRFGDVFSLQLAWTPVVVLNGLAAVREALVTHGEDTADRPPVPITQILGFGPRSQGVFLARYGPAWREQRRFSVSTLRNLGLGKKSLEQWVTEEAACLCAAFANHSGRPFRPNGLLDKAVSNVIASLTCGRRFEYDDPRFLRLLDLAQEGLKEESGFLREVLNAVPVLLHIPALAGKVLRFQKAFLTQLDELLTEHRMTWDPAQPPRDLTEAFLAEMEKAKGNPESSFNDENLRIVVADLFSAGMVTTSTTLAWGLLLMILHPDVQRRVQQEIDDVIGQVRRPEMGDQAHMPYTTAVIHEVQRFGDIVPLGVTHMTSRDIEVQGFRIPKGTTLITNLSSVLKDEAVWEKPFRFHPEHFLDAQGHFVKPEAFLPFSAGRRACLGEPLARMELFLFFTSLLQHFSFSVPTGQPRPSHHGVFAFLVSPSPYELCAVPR

Molecule `C[C@@H]1CN(CCNc2cc(N)nc3cc(-c4ccn[nH]4)sc23)C[C@@H](C)O1` [Compound 124, N^7-(2-((2R,6R)-2,6-dimethylmorpholino)ethyl)-2-(1H-pyrazol-5-yl)thieno[3,2-b]pyridine-5,7-diamine] registered a half-maximal effective concentration (EC50) on hTLR7 of over 100 µM. Also, on CYP2D6, the IC50 is over 10 µM and the “inhibitory effect on CYP2D6” value is “no apparent inhibitory effects”. Moreover, the EC50 in the data set on THP1-defNLRP3 cells is over 30 µM.
The molecule `C[C@@H](CCO)Nc1cc(N)nc2cc(-c3ccn[nH]3)sc12` [Compound 125, (S)-3-((5-amino-2-(1H-pyrazol-5-yl)thieno[3,2-b]pyridin-7-yl)amino)butanol] came in with an EC50 on hTLR7 of over 100 µM. Moreover, at CYP2D6, the IC50 was over 10 µM and the “inhibitory effect on CYP2D6” value was “no apparent inhibitory effects”. Also, the EC50 in the data set on THP1-defNLRP3 cells is over 30 µM.
Regarding `Cc1c(-c2cc[nH]n2)sc2c(NCC(C)(C)CO)cc(N)nc12` [Compound 151], the EC50 is over 100 µM on hTLR7 and over 30 µM in the data set on THP1-defNLRP3 cells.
As for `COCCNc1cc(N)nc2c(C)c(-c3cc[nH]n3)sc12` [Compound 152], the EC50 was over 100 µM at hTLR7 and over 30 µM with THP1-defNLRP3 cells.

As usually defined, the EC50 is the concentration giving half of the maximal effect. For orientation: IC50 means the midpoint of a concentration-inhibition curve. The low end stands for greater potency in that assay, the high end for weaker potency in that assay.
